By IC50 is commonly meant the point on the concentration scale where inhibition reaches its midpoint.

One data set relates to USUV. As to the kind of experiment: microbe, parasite or virus in culture. Format: cell-based. The conditions noted are these: Usutu virus, Vero, 48 h.
A short description of another data set: in vitro. Conditions: African green monkey.
In data set [1] the test system is persistent USUV. Type of data set: cell-based, Usutu virus.
Data set [2] concerns persistent USUV. Type of data set: cell-based, Usutu virus. The source holds these as a separate data set.
For data set [3] the following is noted: in vivo; cited from earlier work.

Turning to `O=c1[nH]cc(F)c(=O)[nH]1` [5-Fluorouracil, 2,4-dihydroxy-5-fluoropyrimidine], in the data set with USUV, the IC50 worked out at 71 µM. In addition, in the data set on Vero cells, the Toxicity in words entry was “elevated toxicity”. For the same molecule, the CC50 in the data set “in vitro” turned out to be 66 µM.

In the data set with USUV, `NC(=O)c1nc(F)cnc1O` [Favipiravir, 6-fluoro-3-hydroxy-2-pyrazinecarboxamide] yielded an IC50 of 315 µM. In the data set with persistent USUV [1], the “Day by which infectious virus in the cellular supernatant is completely extinct” value was at most 6 days; the “Decrease in virus titers and RNA levels in cellular supernatants” value is ~ 5 log10. Besides, the “Decrease in intracellular viral RNA levels” value in the data set on persistent USUV [2] is recorded as under 2 log10. The same molecule came in with a CC50 in the data set “in vitro” of over 2000 µM. Moreover, in data set [3], the Plasma concentration is 1500 to 2000 µM.

With `NC(=O)c1ncn([C@@H]2O[C@H](CO)[C@@H](O)[C@H]2O)n1` [Ribavirin, 1-(β-D-Ribofuranosyl)-1H-1,2,4-triazole-3-carboxamide], the IC50 in the data set with USUV was 163 µM. Moreover, in the data set with persistent USUV [1], the “Day by which infectious virus in the cellular supernatant is completely extinct” value is at most 6 days; the “Decrease in virus titers and RNA levels in cellular supernatants” value is given as ~ 5 log10. The “Decrease in intracellular viral RNA levels” value in the data set with persistent USUV [2] is under 2 log10. The molecule also displayed a CC50 in the data set “in vitro” of over 2000 µM.

(Values after PMC6630443 (Viruses, 2019).)
